Data taken from patent US9670211B2, “Aza-oxo-indoles for the treatment and prophylaxis of respiratory syncytial virus infection” (Hoffmann-La Roche Inc., priority 2013, dated 2017).
pEC50: −log10 of the molar value.

system: RSV Long strain; assay: Viral Cytopathic Effect (CPE) Assay; type: cell-based; conditions: human respiratory syncytial virus, 144 h; RSV Long strain (ATCC), cell viability after 6 days by Cell Counting kit-8
Protocol: Viral Cytopathic Effect (CPE) Assay
To measure anti-RSV activity of compounds, 96-well plates are seeded with 6×10^3 cells per well in Dulbecco's modified Eagle's medium (DMEM) containing 10% fetal bovine serum (FBS). Cells are infected the next day with sufficient RSV Long strain (ATCC) to produce an approximately 80-90% cytopathic effect after 6 days, in the presence of serial half-log diluted compound in a total volume of 200 μL per well. The viability of cells is assessed after 6 days using Cell Counting kit-8 (Dojindo Molecular Technologies). The absorbance at 450 nm and referenced at 630 nm is measured to determine 50% effective concentration (EC50).

SMILES	pEC50
O=C1N(Cc2nc3cc(Cl)ccc3n2C2COC2)c2cnccc2C12CC2 [Example 2-4, 1′-{[5-Chloro-1-(oxetan-3-yl)-1H-benzimidazol-2-yl]methyl}spiro[cyclopropane-1,3′-pyrrolo[2,3-c]pyridin]-2′(1′H)-one]	7.15
O=C1N(Cc2nc3cc(Cl)ccc3n2C2CCC(O)C2)c2cnccc2C12CC2 (centres unmarked) [Example 2-8, 1′-{[5-Chloro-1-(3-hydroxycyclopentyl)-1H-benzimidazol-2-yl]methyl}spiro[cyclopropane-1,3′-pyrrolo[2,3-c]pyridin]-2′(1′H)-one]	7.96
O=C1N(Cc2nc3cc(Cl)ccc3n2C2CCCC2)c2cnccc2C12CC2 [Example 2-3, 1′-[(5-Chloro-1-cyclopentyl-1H-benzimidazol-2-yl)methyl]spiro[cyclopropane-1,3′-pyrrolo[2,3-c]pyridin]-2′(1′H)-one]	7.49
CS(=O)(=O)[C@H]1C[C@H](n2c(CN3C(=O)C4(CC4)c4ccncc43)nc3cc(Cl)ccc32)C1 [Example 1-2, 1′-({5-Chloro-1-[trans-3-(methylsulfonyl)cyclobutyl]-1H-benzimidazol-2-yl}methyl)spiro[cyclopropane-1,3′-pyrrolo[2,3-c]pyridin]-2′(1′H)-one]	8.22
O=C1N(Cc2nc3cc(Cl)ccc3n2C2CC3(C2)CS(=O)(=O)C3)c2cnccc2C12CC2 [Example 2-1, 1′-{[5-Chloro-1-(2,2-dioxido-2-thiaspiro[3.3]hept-6-yl)-1H-benzimidazol-2-yl]methyl}spiro[cyclopropane-1,3′-pyrrolo[2,3-c]pyridin]-2′(1′H)-one]	8.40
O=C1N(Cc2nc3cc(Cl)ccc3n2C2C[S+]([O-])C2)c2cnccc2C12CC2 (centres unmarked) [Example 5, 1′-{[5-Chloro-1-(1-oxidothietan-3-yl)-1H-benzimidazol-2-yl]methyl}spiro[cyclopropane-1,3′-pyrrolo[2,3-c]pyridin]-2′(1′H)-one]	8.30
CC1(C)[C@H](n2c(CN3C(=O)C4(CC4)c4ccncc43)nc3cc(Cl)ccc32)CCS1(=O)=O (stereo in doubt) [Example 13, 1′-{[5-Chloro-1-(2,2-dimethyl-1,1-dioxidotetrahydrothiophen-3-yl)-1H-benzimidazol-2-yl]methyl}spiro[cyclopropane-1,3′-pyrrolo[2,3-c]pyridin]-2′(1′H)-one]	6.40
CS(=O)(=O)[C@H]1C[C@@H](n2c(CN3C(=O)C4(CC4)c4ccncc43)nc3cc(Cl)ccc32)C1 [Example 1-1, 1′-({5-Chloro-1-[cis-3-(methylsulfonyl)cyclobutyl]-1H-benzimidazol-2-yl}methyl)spiro[cyclopropane-1,3′-pyrrolo[2,3-c]pyridin]-2′(1′H)-one]	8.00
C[C@]1(O)C[C@H](n2c(CN3C(=O)C4(CC4)c4ccncc43)nc3cc(Cl)ccc32)C1 [Example 2-17, 1′-{[5-Chloro-1-(trans-3-hydroxy-3-methylcyclobutyl)-1H-benzimidazol-2-yl]methyl}spiro[cyclopropane-1,3′-pyrrolo[2,3-c]pyridin]-2′(1′H)-one]	8.30
O=C1N(Cc2nc3cc(Cl)ccc3n2C2CCS(=O)(=O)CC2)c2cnccc2C12CC2 [Example 2-2, 1′-{[5-Chloro-1-(1,1-dioxidotetrahydro-2H-thiopyran-4-yl)-1H-benzimidazol-2-yl]methyl}spiro[cyclopropane-1,3′-pyrrolo[2,3-c]pyridin]-2′(1′H)-one]	8.22
O=C1N(Cc2nc3cc(Cl)ccc3n2C2CC(F)(F)C2)c2cnccc2C12CC2 [Example 2-5, 1′-{[5-Chloro-1-(3,3-difluorocyclobutyl)-1H-benzimidazol-2-yl]methyl}spiro[cyclopropane-1,3′-pyrrolo[2,3-c]pyridin]-2′(1′H)-one]	7.80
O=C1N(Cc2nc3cc(Cl)ccc3n2C2CNS(=O)(=O)C2)c2cnccc2C12CC2 (centres unmarked) [Example 15, 1′-{[5-Chloro-1-(1,1-dioxido-1,2-thiazolidin-4-yl)-1H-benzimidazol-2-yl]methyl}spiro[cyclopropane-1,3′-pyrrolo[2,3-c]pyridin]-2′(1′H)-one]	8.80
O=C1NCCC1n1c(CN2C(=O)C3(CC3)c3ccncc32)nc2cc(Cl)ccc21 (centres unmarked) [Example 2-9, 1′-{[5-Chloro-1-(2-oxopyrrolidin-3-yl)-1H-benzimidazol-2-yl]methyl}spiro[cyclopropane-1,3′-pyrrolo[2,3-c]pyridin]-2′(1′H)-one]	6.79
O=C1N(Cc2nc3cc(Cl)ccc3n2C2CCS(=O)(=O)C2)c2cnccc2C12CC2 (centres unmarked) [Example 3-1, 1′-{[5-Chloro-1-(1,1-dioxidotetrahydrothiophen-3-yl)-1H-benzimidazol-2-yl]methyl}spiro[cyclopropane-1,3′-pyrrolo[2,3-c]pyridin]-2′(1′H)-one]	8.22
O=C1N(Cc2nc3cc(Cl)ccc3n2[C@@H]2CCS(=O)(=O)C2)c2cnccc2C12CC2 [Example 3-3, 1′-({5-Chloro-1-[(3R)-1,1-dioxidotetrahydrothiophen-3-yl]-1H-benzimidazol-2-yl}methyl)spiro[cyclopropane-1,3′-pyrrolo[2,3-c]pyridin]-2′(1′H)-one]	8.80
CC(C)(C)OC(=O)N1CCC(n2c(CN3C(=O)C4(CC4)c4ccncc43)nc3cc(Cl)ccc32)C1 (centres unmarked) [Example 2-15, tert-Butyl 3-{5-chloro-2-[(2′-oxospiro[cyclopropane-1,3′-pyrrolo[2,3-c]pyridin]-1′(2′H)-yl)methyl]-1H-benzimidazol-1-yl}pyrrolidine-1-carboxylate]	7.51
CS(=O)(=O)N1CC(n2c(CN3C(=O)C4(CC4)c4ccncc43)nc3cc(Cl)ccc32)C1 [Example 12, 1′-({5-Chloro-1-[1-(methylsulfonyl)azetidin-3-yl]-1H-benzimidazol-2-yl}methyl)spiro[cyclopropane-1,3′-pyrrolo[2,3-c]pyridin]-2′(1′H)-one]	8.74
O=C1CC(n2c(CN3C(=O)C4(CC4)c4ccncc43)nc3cc(Cl)ccc32)CCN1 (centres unmarked) [Example 2-10, 1′-{[5-Chloro-1-(2-oxopiperidin-4-yl)-1H-benzimidazol-2-yl]methyl}spiro[cyclopropane-1,3′-pyrrolo[2,3-c]pyridin]-2′(1′H)-one]	8.30
O=C1N(Cc2nc3cc(Cl)ccc3n2C2CCC(O)CC2)c2cnccc2C12CC2 (centres unmarked) [Example 2-7, 1′-{[5-Chloro-1-(4-hydroxycyclohexyl)-1H-benzimidazol-2-yl]methyl}spiro[cyclopropane-1,3′-pyrrolo[2,3-c]pyridin]-2′(1′H)-one]	8.96
O=C1N(Cc2nc3cc(Cl)ccc3n2C(CO)CO)c2cnccc2C12CC2 [Example 2-16, 1′-{[5-Chloro-1-(1,3-dihydroxypropan-2-yl)-1H-benzimidazol-2-yl]methyl}spiro[cyclopropane-1,3′-pyrrolo[2,3-c]pyridin]-2′(1′H)-one]	6.91
O=C1N(Cc2cc3cc(Cl)cnc3n2C2CCS(=O)(=O)C2)c2cnccc2C12CC2 (centres unmarked) [Example 19, 1′-{[5-Chloro-1-(1,1-dioxidotetrahydrothiophen-3-yl)-1H-pyrrolo[2,3-b]pyridin-2-yl]methyl}spiro[cyclopropane-1,3′-pyrrolo[2,3-c]pyridin]-2′(1′H)-one]	8.22

The next lines start with the values.

pEC50	SMILES
8.96	CCN1CC(n2c(CN3C(=O)C4(CC4)c4ccncc43)nc3cc(Cl)ccc32)CC1=O (centres unmarked) [Example 8-2, 1′-{[5-Chloro-1-(1-ethyl-5-oxopyrrolidin-3-yl)-1H-benzimidazol-2-yl]methyl}spiro[cyclopropane-1,3′-pyrrolo[2,3-c]pyridin]-2′(1′H)-one]
9.15	O=C1N(Cc2nc3cc(Cl)cc(F)c3n2[C@@H]2CCS(=O)(=O)C2)c2cnccc2C12CC2 [Example 9-2, 1′-({5-Chloro-1-[(3R)-1,1-dioxidotetrahydrothiophen-3-yl]-7-fluoro-1H-benzimidazol-2-yl}methyl)spiro[cyclopropane-1,3′-pyrrolo[2,3-c]pyridin]-2′(1′H)-one]
7.11	O=C1N(Cc2nc3cc(Cl)ccc3n2C2CCNCC2)c2cnccc2C12CC2 [Example 10-1, 1′-{[5-Chloro-1-(piperidin-4-yl)-1H-benzimidazol-2-yl]methyl}spiro[cyclopropane-1,3′-pyrrolo[2,3-c]pyridin]-2′(1′H)-one]
7.89	O=C1N(Cc2nc3cc(Cl)cc(F)c3n2[C@H]2CCS(=O)(=O)C2)c2cnccc2C12CC2 [Example 9-1, 1′-({5-Chloro-1-[(3S)-1,1-dioxidotetrahydrothiophen-3-yl]-7-fluoro-1H-benzimidazol-2-yl}methyl)spiro[cyclopropane-1,3′-pyrrolo[2,3-c]pyridin]-2′(1′H)-one]
6.86	O=C1N(Cc2nc3cc(Cl)ccc3n2C2CNC2)c2cnccc2C12CC2 [Example 10-2, 1′-{[1-(Azetidin-3-yl)-5-chloro-1H-benzimidazol-2-yl]methyl}spiro[cyclopropane-1,3′-pyrrolo[2,3-c]pyridin]-2′(1′H)-one]
8.15	O=C1N(Cc2nc3cc(Cl)ccc3n2[C@H]2C[C@@H](O)C2)c2cnccc2C12CC2 [Example 14-1, 1′-{[5-Chloro-1-(cis-3-hydroxycyclobutyl)-1H-benzimidazol-2-yl]methyl}spiro[cyclopropane-1,3′-pyrrolo[2,3-c]pyridin]-2′(1′H)-one]
8.19	O=C1N(Cc2nc3cc(Cl)ccc3n2C2CS(=O)(=O)C2)c2cnccc2C12CC2 [Example 4-1, 1′-{[5-Chloro-1-(1,1-dioxidothietan-3-yl)-1H-benzimidazol-2-yl]methyl}spiro[cyclopropane-1,3′-pyrrolo[2,3-c]pyridin]-2′(1′H)-one]
6.68	CCC1(CC)C(=O)N(Cc2nc3cc(Cl)ccc3n2C2CS(=O)(=O)C2)c2cnccc21 [Example 4-3, 1-{[5-Chloro-1-(1,1-dioxidothietan-3-yl)-1H-benzimidazol-2-yl]methyl}-3,3-diethyl-1,3-dihydro-2H-pyrrolo[2,3-c]pyridin-2-one]
